The SangsterLogP compilation
Square brackets hold non-standard residues; d marks the D form. Peptide text beside a SMILES is read from it. NMeF = CN[CH](Cc1ccccc1)C(=O)O

Key:
[1] = method code SF-HPLC, from DOI: 10.1002/jccs.199500138
[2] = method code SF-HPLC, from DOI: 10.1016/0378-5173(91)90200-8; conditions: pH 7.4
[3] = method code SF-AS, from DOI: 10.1021/jm0104926, PMID: 11960499
[4] = method code HPLC, from DOI: 10.1016/j.bmcl.2004.01.062, PMID: 15026043; conditions: pH 5.5
[5] = method code SF-CR+AS, from DOI: 10.1007/bf00500994, PMID: 4267539; conditions: pH 7.4
[6] = method code SF-HPLC, from DOI: 10.1016/0045-6535(86)90532-1; conditions: pH 6.5
[7] = not given; remark: listed apart in the source
[8] = not given; remark: listed apart in the source
[9] = not given; remark: listed apart in the source
[10] = not given; remark: listed apart in the source
[11] = method code SF-RC, from DOI: 10.1023/a:1015867608405, PMID: 1614980; conditions: pH 7.4
[12] = method code SF-HPLC, from DOI: 10.2174/1871523013666141114203105, PMID: 25403255; conditions: pH 7.4
[13] = not given; remark: listed apart in the source
[14] = method code SF-AS, from Lee, B.; Shin, J.; Lim, M.; Jang, T.; Park, J.; Kim, K.; Kang, W. (1997). Partition Property of 5-Nitrothiopyrimidine Nucleoside. Bull Korean Chem Soc, 18(7)734-736.; conditions: pH 7.0
[15] = method code SF-AS, from DOI: 10.1016/j.ejmech.2011.02.056, PMID: 21420207
[16] = method code SF-AS, from DOI: 10.1002/jps.2600710122
[17] = method code SF-HPLC, from DOI: 10.1021/jm00169a024, PMID: 2194033; conditions: pH 7.4
[18] = method code SF-GLC, from DOI: 10.1002/jps.2600620103, PMID: 4734195
[19] = method code HPLC, from DOI: 10.1016/j.ejmech.2015.05.022, PMID: 26005028; conditions: pH 7.1
[20] = not given; remark: listed apart in the source
[21] = method code SF, from PMID: 26783178
[22] = method code SF, from DOI: 10.1515/znc-1979-1128; conditions: pH 7.4
[23] = method code SF-HPLC, from DOI: 10.1002/jlac.1995199512306
[24] = not given; remark: listed apart in the source
[25] = not given; remark: listed apart in the source

**Q.** For `CC(=CCCC(C)C1CC(O)C2(C)C3=CCC4C(C)(CCC(O)C4(C)C)C3=CCC12C)C(=O)O` (stereo unspecified), which logP [1] is on record?
**A.** 2.69

**Q.** For `CC(=O)O[C@@H]1C[C@@H]([C@@H](C)CC/C=C(\C)C(=O)O)[C@]2(C)CC=C3C(=CCC4C(C)(C)[C@H](O)CC[C@@]34C)[C@@]12C` (stereo partly specified), which logP [1] is on record?
**A.** 2.71

**Q.** Which logP does the source give for `CCCC` here?
**A.** 2.74

**Q.** Which logD [2] does the source give for `CCC(C(=O)OCc1ccc(COC(=O)C(CC)C(COC(C)=O)Cc2cncn2C)cc1)C(COC(C)=O)Cc1cncn1C` (stereo unspecified) here?
**A.** 3.04

**Q.** For `FC(F)(C(Cl)Br)C1N=N1` (stereo unspecified), which logP [3] is on record?
**A.** 1.9

**Q.** With `CC(C)OC(=O)C(Cc1ccc(OC(=O)N(C)C)cc1)NC(=O)C1N(S(=O)(=O)c2cnn(C)c2)CSC1(C)C` (stereo unspecified) as the compound, how does the logD [4] read?
**A.** 2.46

**Q.** For `O=CC(Cl)(Cl)Cl`, which logD [5] is on record?
**A.** 1.61

**Q.** With `S=C1NCCN1` as the compound, how does the logD [6] read?
**A.** -0.66

**Q.** Which logP [7] does the source give for `NC(=O)c1cssc1=S` here?
**A.** 0.3

**Q.** With `CC(=O)OCCCCOC(C)=O` as the compound, how does the logP [8] read?
**A.** 0.01

**Q.** Which logP [9] does the source give for `CC1=C(C/C=C(\C)CCC[C@H](C)CCC[C@H](C)CCCC(C)C)C(=O)c2ccccc2C1=O` here?
**A.** 11.7

**Q.** With `CCCCNC(=S)NCCCC` as the compound, how does the logD [6] read?
**A.** 2.75

**Q.** With `CC[C@H]1OC(=O)C[C@@H](O)[C@H](C)[C@@H](O[C@@H]2O[C@H](C)C[C@H](N(C)C)[C@H]2O)[C@@H](CC=O)C[C@@H](C)C(=O)/C=C/[C@]2(C)O[C@H]2[C@@H]1C` as the compound, how does the logP [10] read?
**A.** 2.19

**Q.** Which logD [11] does the source give for `CC(=O)N(C)C(Cc1ccccc1)C(=O)N(C)C(Cc1ccccc1)C(=O)N(C)C(Cc1ccccc1)C(N)=O` (stereo unspecified) (Ac-[NMeF]-[NMeF]-[NMeF]-NH2; configuration not given here) here?
**A.** 2.92

**Q.** Which logD [12] does the source give for `COc1cc(C=O)ccc1OC(=O)COC(=O)Cc1ccccc1Nc1c(Cl)cccc1Cl` here?
**A.** 4.86

**Q.** Which logD [2] does the source give for `CCC(C(=O)OCc1ccc(COC(=O)C(CC)C(COC(=O)CC(=O)OC)Cc2cncn2C)cc1)C(COC(=O)CC(=O)OC)Cc1cncn1C` (stereo unspecified) here?
**A.** 2.76

**Q.** For `Nc1ccc(S(=O)(=O)NC(=O)c2ccccc2)cc1`, which logP [13] is on record?
**A.** 1.46

**Q.** Which logD [14] does the source give for `O=[N+]([O-])c1c[nH]c(=S)[nH]c1=S` here?
**A.** 0.52

**Q.** Which logP [8] does the source give for `C=CCBr` here?
**A.** 1.9

**Q.** Which logP [15] does the source give for `CCCCCCCCCCCC(=O)N[C@H]1C[C@H](O[C@H]2C[C@](O)(C(=O)CO)Cc3c(O)c4c(c(O)c32)C(=O)c2c(OC)cccc2C4=O)O[C@@H](C)[C@H]1O` here?
**A.** 1.96

**Q.** For `CCCCCCCCCCCCCCCC(=O)N[C@H]1C[C@H](O[C@H]2C[C@](O)(C(=O)CO)Cc3c(O)c4c(c(O)c32)C(=O)c2c(OC)cccc2C4=O)O[C@@H](C)[C@H]1O`, which logP [15] is on record?
**A.** 2.19

**Q.** With `Nc1nc(NC(=O)C(F)(F)C(F)(F)C(F)(F)F)n[nH]1` as the compound, how does the logP [16] read?
**A.** 1.54

**Q.** Which logP [1] does the source give for `CC(=O)OC1CCC2(C)C3=CCC4(C)C(C(C)CCC=C(C)C(=O)O)CC(O)C4(C)C3=CCC2C1(C)C` (stereo unspecified) here?
**A.** 2.72

**Q.** With `CCN1CC(C(O)[C@H](CC2CCCCC2)NC(=O)[C@H](Cc2cnc[nH]2)NC(=O)[C@@H](CC(=O)N(C)CCOC)Cc2ccccc2)OC1=O` (stereo partly specified) as the compound, how does the logD [17] read?
**A.** 2.45

**Q.** Which logD [4] does the source give for `CN(C)C(=O)Oc1ccc(CC(NC(=O)C2N(S(=O)(=O)c3cnn(C)c3)CSC2(C)C)C(=O)OCC(C)(C)C)cc1` (stereo unspecified) here?
**A.** 3.42

**Q.** With `CC(O)C(F)(F)F` (stereo unspecified) as the compound, how does the logP [18] read?
**A.** 0.71

**Q.** With `CCCCCCNC(=O)CBr` as the compound, how does the logD [19] read?
**A.** 2.18

**Q.** For `CCCCCCCCc1ccc(OCC(=O)Cn2ccc3cc(C(=O)O)ccc32)cc1`, which logP [20] is on record?
**A.** 6.3

**Q.** With `Cc1c(-c2cnccn2)ssc1=S` as the compound, how does the logP [7] read?
**A.** 2.79

**Q.** Which logD [11] does the source give for `CC(=O)NC(Cc1ccccc1)C(=O)NC(Cc1ccccc1)C(=O)N(C)C(Cc1ccccc1)C(N)=O` (stereo not drawn) (Ac-Phe-Phe-[NMeF]-NH2; configuration not given here) here?
**A.** 2.63

**Q.** For `CCCCCCCCc1ccc(OCC(=O)Cn2cc(C(=O)OC)c3cc(C(=O)O)ccc32)cc1`, which logP [20] is on record?
**A.** 6.2

**Q.** Which logD [5] does the source give for `OCC(Cl)(Cl)Cl` here?
**A.** 1.42

**Q.** For `C=C1CC[C@H](O)C/C1=C/C=C1\CCC[C@]2(C)[C@@H]([C@H](C)CCCC(C)C)CC[C@@H]12`, which logP [9] is on record?
**A.** 10.2

**Q.** With `COc1ccccc1OC(=O)COC(=O)Cc1ccccc1Nc1c(Cl)cccc1Cl` as the compound, how does the logD [12] read?
**A.** 4.6

**Q.** With `CC(=O)Nc1n[nH]c(NC(C)=O)n1` as the compound, how does the logP [16] read?
**A.** -1.01

**Q.** Which logP [21] does the source give for `Cc1ccc(N2C(=O)[C@H](CCCNS(=O)(=O)c3ccc(OC(F)(F)F)cc3)[C@H]2c2ccc([N+](=O)[O-])cc2)cc1` here?
**A.** 4.55

**Q.** For `c1ncncn1`, which logD [22] is on record?
**A.** -0.73

**Q.** With `CC1=C(C)C(O)N(c2ccc(C)c(C)c2)C1=O` (stereo unspecified) as the compound, how does the logD [22] read?
**A.** 2.36

**Q.** Which logP [23] does the source give for `Cc1cn(C2CC(N=[N+]=[N-])C(COP(=O)(OCc3ccccc3)OCC3OC(n4cc(C)c(=O)[nH]c4=O)CC3N=[N+]=[N-])O2)c(=O)[nH]c1=O` (stereo unspecified) here?
**A.** 1.34

**Q.** Which logP [24] does the source give for `ClC(Br)Br` here?
**A.** 2.24

**Q.** Which logP [25] does the source give for `Fc1ccccc1` here?
**A.** 2.01

**Q.** With `Cc1cn(C2CC(N=[N+]=[N-])C(COP(=O)(OCc3ccc(C#N)cc3)OCC3OC(n4cc(C)c(=O)[nH]c4=O)CC3N=[N+]=[N-])O2)c(=O)[nH]c1=O` (stereo unspecified) as the compound, how does the logP [23] read?
**A.** 0.91

**Q.** Which logP [25] does the source give for `CC(C)=O` here?
**A.** -0.17

**Q.** For `FC(Cl)C(F)(F)C1(Br)N=N1` (stereo unspecified), which logP [3] is on record?
**A.** 2.18

**Q.** For `CC[C@H]1OC(=O)[C@H](C)[C@@H](O[C@H]2C[C@@](C)(OC)[C@@H](O)[C@H](C)O2)[C@H](C)[C@@H](O[C@@H]2O[C@H](C)C[C@H](N(C)C)[C@H]2O)[C@](C)(O)C[C@@H](C)C(=O)[C@H](C)[C@@H](O)[C@]1(C)O`, which logP [10] is on record?
**A.** 3.06

**Q.** For `COC(=O)CBr`, which logD [19] is on record?
**A.** 0.77

**Q.** With `CCOC(=O)CC(Cc1cncn1C)C(CC)C(=O)OCc1ccc(COC(=O)C(CC)C(CC(=O)OCC)Cc2cncn2C)cc1` (stereo unspecified) as the compound, how does the logD [2] read?
**A.** 4.08

**Q.** With `CCCCCCCCc1ccc(OCC(=O)Cn2cc(C(=O)C(C)C)c3cc(C(=O)O)ccc32)cc1` as the compound, how does the logP [20] read?
**A.** 6.6

**Q.** Which logP does the source give for `ClC(Cl)(Cl)Cl` here?
**A.** 2.59

**Q.** With `CCC#N` as the compound, how does the logP [13] read?
**A.** 0.1

**Q.** With `CCc1ccc(S(=O)(=O)NCCCC2C(=O)N(c3ccc(C)cc3)C2c2ccc(NS(C)(=O)=O)cc2)cc1` (stereo unspecified) as the compound, how does the logP [21] read?
**A.** 3.62

**Q.** With `CC(C)CCC[C@@H](C)[C@H]1CC[C@H]2C3=CC=C4C[C@@H](O)CC[C@]4(C)[C@H]3CC[C@]12C` as the compound, how does the logP [9] read?
**A.** 8.65

**Q.** Which logP [15] does the source give for `CCCCCCCC(=O)N[C@H]1C[C@H](O[C@H]2C[C@](O)(C(=O)CO)Cc3c(O)c4c(c(O)c32)C(=O)c2c(OC)cccc2C4=O)O[C@@H](C)[C@H]1O` here?
**A.** 1.81

**Q.** Which logD [17] does the source give for `CCN1CC(C(O)[C@H](CC2CCCCC2)NC(=O)[C@H](Cc2cnc[nH]2)NC(=O)[C@@H](Cc2ccc(OC)cc2)NC(=O)N2CCOCC2)OC1=O` (stereo partly specified) here?
**A.** 2.11

**Q.** With `O=C1[C@H](CC[C@H](O)c2ccc(F)cc2)[C@@H](c2ccc(O)cc2)N1c1ccc(F)cc1` as the compound, how does the logP [21] read?
**A.** 3.64

**Q.** Which logD [17] does the source give for `CCN1CC(C(O)[C@H](CC2CCCCC2)NC(=O)[C@H](Cc2cnc[nH]2)NC(=O)[C@@H](CC(=O)N(C)CCOCOC)Cc2ccccc2)OC1=O` (stereo partly specified) here?
**A.** 2.49

**Q.** Which logP [10] does the source give for `CO[C@@H]1[C@@H](O[C@@H]2O[C@H](C)[C@@H](O)[C@H](N(C)C)[C@H]2O)[C@@H](CC=O)C[C@@H](C)C(=O)/C=C\[C@H]2O[C@H]2C[C@@H](C)OC(=O)C[C@H]1OC(C)=O` here?
**A.** 0.3

**Q.** For `OCC(Cl)Cl`, which logP [18] is on record?
**A.** 0.37

**Q.** With `Cc1cn(C2CC(N=[N+]=[N-])C(COP(=O)(OCc3cccc([N+](=O)[O-])c3)OCC3OC(n4cc(C)c(=O)[nH]c4=O)CC3N=[N+]=[N-])O2)c(=O)[nH]c1=O` (stereo unspecified) as the compound, how does the logP [23] read?
**A.** 0.99

**Q.** For `CNC(=O)C(Cc1ccccc1)N(C)C(=O)C(Cc1ccccc1)N(C)C(=O)C(Cc1ccccc1)N(C)C(C)=O` (stereo unspecified) (Ac-[NMeF]-[NMeF]-[NMeF]-NHMe; configuration not given here), which logD [11] is on record?
**A.** 3.24

**Q.** For `ClC(Cl)Br`, which logP [24] is on record?
**A.** 2.1
